We go through 4 compounds from patent publication US5087634A, “N-substituted imidazol-2-one compounds for treatment of circulatory disorders” (G. D. Searle & Co., priority 1990, dated 1992).

The test system of experiment [1] is angiotensin II. The conditions noted are these: binding experiments, functional assays and in vivo tests; cited from earlier work.
The subject of experiment [2] is angiotensin II receptors. Particulars: cited from earlier work.
The subject of experiment [3] is angiotensin II pressor response. The experiment can be described thus: In Vivo Intragastric Pressor Assay Response for AII Antagonists. On the set-up: species or system rat (male Sprague-Dawley). Particulars: dose 10 (units not given), gavage, listed as EX. #1. Here is the method:
Male Sprague-Dawley rats weighing 225-300 grams were anesthetized with methohexital (30 mg/kg, i.p.) and catheters were implanted into the femoral artery and vein. The catheters were tunneled subcutaneously to exit dorsally, posterior to the head and between the scapulae. The catheters were filled with heparin (1000 units/ml of saline). The rats were returned to their cage and allowed regular rat chow and water ad libitum. After full recovery from surgery (3-4 days), rats were placed in Lucite holders and the arterial line was connected to a pressure transducer. Arterial pressure was recorded on a Gould polygraph (mmHg). […] After allowing one hour for pressure to stabilize, the test compound (suspended in 0.5% methylcellulose in water) was administered by gavage. The volume administered was 2 ml/kg body weight. Arterial pressure was monitored for 5 hours post-dosing. The angiotensin II infusion was then discontinued and pressure was allowed to reach a stable recovery level. Percent inhibition (%I) of the angiotensin II pressor response was calculated from the difference in pressure at a given timepoint post-dosing with the test compound and the antiotensin II-infused pressure, divided by the difference in pressure with and without the angiotensin II infusion; this value was multiplied by 100. Duration of action of a test compound was defined as the time taken for pressure to return to angiotensin II-infused baseline levels after compound administration. One compound at one dose was tested in each rat. The compound of Example I was tested in two rats.

For experiment [4], the target named is T1, rabbit aortic rings (Oryctolagus cuniculus, UniProt P34976).
T1 construct: The thoracic aorta was removed, cleaned of adherent fat and connective tissue and then cut into 3-mm ring segments; from tissue; host or cells: thoracic aorta rings of male New Zealand white rabbits, endothelium removed
T1 sequence (P34976 1-359): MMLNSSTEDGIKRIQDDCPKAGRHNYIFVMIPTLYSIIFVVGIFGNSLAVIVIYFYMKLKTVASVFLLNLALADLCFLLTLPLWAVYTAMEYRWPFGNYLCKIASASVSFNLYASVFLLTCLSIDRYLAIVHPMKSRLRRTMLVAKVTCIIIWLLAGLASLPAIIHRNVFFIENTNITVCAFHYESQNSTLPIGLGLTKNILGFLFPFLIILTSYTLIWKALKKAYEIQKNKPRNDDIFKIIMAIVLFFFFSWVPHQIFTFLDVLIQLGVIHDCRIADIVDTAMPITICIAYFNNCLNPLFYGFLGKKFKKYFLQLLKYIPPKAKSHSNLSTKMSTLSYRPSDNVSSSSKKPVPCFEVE
Briefly: In Vitro Vascular Smooth Muscle-Response for AII (rabbit aortic rings). On the set-up: species or system rabbit (male New Zealand white). Particulars: antagonist 10^-5 M for 5 minutes before AII; rabbit aorta rings, 37° C.; read-out: pA2 value (converted). Here is the method:
The compounds of the invention were tested for antagonist activity in rabbit aortic rings. Male New Zealand white rabbits (2-2.5 kg) were sacrificed using an overdose of pentobarbital and exsanguinated via the carotid arteries. The thoracic aorta was removed, cleaned of adherent fat and connective tissue and then cut into 3-mm ring segments. The endothelium was removed from the rings by gently sliding a rolled-up piece of filter paper into the vessel lumen. The rings were then mounted in a water-jacketed tissue bath, maintained at 37° C., between moveable and fixed ends of a stainless steel wire with the moveable end attached to an FT03 Grass transducer coupled to a Model 7D Grass Polygraph for recording isometric force responses. The bath was filled with 20 ml of oxygenated (95% oxygen/5% carbon dioxide) Krebs solution of the following composition (mM): 130 NaCl, 15 NaHCO3, 15 KCl, 1.2 NaH2 P04, 1.2 MgSO4, 2.5 CaCl2, and 11.4 glucose. The preparations were equilibrated for one hour before approximately one gram of passive tension was placed on the rings. Angiotensin II concentration-response curves were then recorded (3×10^-10 to 1×10^-5 M). […] The effectiveness of the test compound was expressed in terms of pA2 values and were calculated according to H. O. Schild [Br. J. Pharmacol. Chemother., 2, 189-206 (1947)]. […] Each test antagonist was evaluated in aorta rings from two, rabbits.

In experiment [5] the target is smooth muscle angiotensin II receptor. Briefly: Angiotensin II Binding Activity (displacement of 125I-AII from rat uterine membranes). Particulars: 25° C., 60 min, read-out: IC50 (50% displacement of the total specifically bound 125I-AII). The procedure:
Compounds of the invention were tested for ability to bind to the smooth muscle angiotensin II receptor using a rat uterine membrane preparation. Angiotensin II (AII) was purchased from Peninsula Labs. 125I-angiotensin II (specific activity of 2200 Ci/mmol) was purchased from Du Pont-New England Nuclear. Other chemicals were obtained from Sigma Chemical Co. This assay was carried out according to the method of Douglas et al [Endocrinoloby, 106, 120-124 (1980)]. Rat uterine membranes were prepared from fresh tissue. All procedures were carried out at 4° C. Uteri were stripped of fat and homogenized in phosphate-buffered saline at pH 7.4 containing 5 mM EDTA. The homogenate was centrifuged at 1500× g for 20 min., and the supernatant was recentrifuged at 100,000× g for 60 min. The pellet was resuspended in buffer consisting of 2 mM EDTA and 50 mM Tris-HCl (pH 7.5) to a final protein concentration of 4 mg/ml. Assay tubes were charged with 0.25 ml of a solution containing 5 mM MgCl2, 2 mM EDTA, 0.5% bovine serum albumin, 50 mM Tris-HCl, pH 7.5 and ^125 I-AJI (approximately 10^5 cpm) in the absence or in the presence of unlabelled ligand. […] Filters were assayed for radioactivity in a Micromedic gamma counter. […] Specific binding was calculated as total binding minus nonspecific binding. […] Binding data were analyzed by a nonlinear least-squares curve fitting program.
Background: Loss of bound radioactivity is the signal in a displacement assay; it reports binding, not function.

SMILES strings stand for the structures. Values joined by “and” are separate entries in the source; they are usually repeats but may differ in a detail not shown here. Equal values may be shown once.

Take `CCCCc1nc(Cl)c(CC(=O)O)n1Cc1ccccc1[N+](=O)[O-]` [2-butyl-4-choloro-l-(2-nitrobenzyl)imidazole-5-acetic acid]: the “angiotensin II antagonist activity” value in experiment [1] is “specific competitive angiotensin II antagonist activity”.

With `CCCCc1nc(Cl)c(CC(=O)O)n1Cc1ccccc1Cl` [2-n-butyl-4-chloro-l-(2-chlorobenzyl)imidazole-5-acetic acid], the “angiotensin II antagonist activity” value in experiment [1] was “specific competitive angiotensin II antagonist activity”.

For `CNCC(=O)N[C@@H](CCCN=C(N)N)C(=O)N[C@H](C(=O)N[C@@H](Cc1ccc(O)cc1)C(=O)N[C@H](C(=O)N[C@@H](Cc1cnc[nH]1)C(=O)N1CCC[C@H]1C(=O)N[C@@H](C)C(=O)O)C(C)C)C(C)C` [Saralasin], the residual agonist activity entry in experiment [2] is recorded as “significant residual agonist activity”.

In general, IC50 refers to the concentration at which inhibition is half-maximal. As to `CCCCc1cn(CCCC)c(=O)n1Cc1ccc(-c2ccccc2-c2nnn[nH]2)cc1` [Example 1, 1,4-dibutyl-1,3-dihydro-3-[2'-(1H-tetrazol-5-yl)[1,1'biphenyl]-4-ylmethyl]-2H-imidazol-2-one], the “mean arterial pressure after administration, time 10” value in experiment [3] (time 10, AII infusion 50 ng/kg/min, two rats (baseline/after AII 116/168 and 126/175 mmHg)) is 165 mmHg and 166 mmHg. In addition, in experiment [3] (time 20, AII-infused rats), the “mean arterial pressure after administration, time 20” value is 163 mmHg and 155 mmHg. Further, the “mean arterial pressure after administration, time 30” value in experiment [3] (time 30, AII-infused rats) was 159 mmHg and 147 mmHg. Also, in experiment [3] (time 40, AII-infused rats), the “% inhibition (% I) of the AII pressor response, time 40” value was 41% and 58%; the “mean arterial pressure after administration, time 40” value was 146 mmHg and 147 mmHg. In experiment [3] (time 50, AII-infused rats), the “% inhibition (% I) of the AII pressor response, time 50” value was 45% and 89%; the “mean arterial pressure after administration, time 50” value was 144 mmHg and 132 mmHg. Further, in experiment [3] (time 60, AII-infused rats), the “% inhibition (% I) of the AII pressor response, time 60” value is 54% and 88%; the “mean arterial pressure after administration, time 60” value is 140 mmHg and 132 mmHg. In experiment [3] (time 90, AII-infused rats), the “% inhibition (% I) of the AII pressor response, time 90” value is 86% and 96%; the “mean arterial pressure after administration, time 90” value is 123 mmHg and 128 mmHg. Besides, in experiment [3] (time 120, AII-infused rats), the “% inhibition (% I) of the AII pressor response, time 120” value is 85% and 103%; the “mean arterial pressure after administration, time 120” value was 124 mmHg and 125 mmHg. In experiment [3] (time 150, AII-infused rats), the “% inhibition (% I) of the AII pressor response, time 150” value was 93% and 97%; the “mean arterial pressure after administration, time 150” value is 119 mmHg and 128 mmHg. For the same compound, in experiment [3] (time 180, AII-infused rats), the “% inhibition (% I) of the AII pressor response, time 180” value is 96% and 97%; the “mean arterial pressure after administration, time 180” value was 117 mmHg and 127 mmHg. In experiment [3] (time 210, AII-infused rats), the “% inhibition (% I) of the AII pressor response, time 210” value was 106% and 98%; the “mean arterial pressure after administration, time 210” value was 113 mmHg and 127 mmHg. Moreover, in experiment [3] (time 240, AII-infused rats), the “% inhibition (% I) of the AII pressor response, time 240” value is 102% and 89%; the “mean arterial pressure after administration, time 240” value was 115 mmHg and 131 mmHg. Besides, in experiment [3] (time 270, AII-infused rats), the “% inhibition (% I) of the AII pressor response, time 270” value is 96% and 92%; the “mean arterial pressure after administration, time 270” value is 117 mmHg and 130 mmHg. In addition, in experiment [3] (time 300, AII-infused rats), the “% inhibition (% I) of the AII pressor response, time 300” value is 97% and 87%; the “mean arterial pressure after administration, time 300” value was 117 mmHg and 133 mmHg. The Kb in experiment [4] was 2.51 nM. In addition, the IC50 in experiment [5] was determined as 6.4 nM.
